{"source": "patent US20160331853A1", "about": "“COMPOSITIONS FOR RADIOTHERAPY AND USES THEREOF” (The Trustees of Columbia University in the City of New York, priority 2014, published 2016)", "key": {"NCI-28H cells [1]": {"tested_on": "NCI-28H cells", "assay": "Example 22: cytotoxicity (MTS) assay, NCI-28H cells treated with carboplatin, mitomycin, gemcitabine, talc alone, talc bound to each drug", "conditions": "for % survival from untreated cells: cells + drug, carboplatin / Average reading: cells + drug, carboplatin / Average absorbance reading: cells + drug, gemcitabine / % survival cells: cells + drug only: NCI-28H cells; for Average reading: cells + drug, carboplatin: absorbance 490 nm; for Average absorbance reading: cells + drug, gemcitabine: 490 nm, Table 79; for % survival cells: cells + drug only: Table 80"}, "[2]": {"assay": "Example 2: Avidin and Avidin-Rhodamine binding to talc after PBS and 0.2% EDTA washes, fluorescent microscope", "conditions": "100 mg talc; 3x PBS, 3x 0.2% EDTA washes", "experimental": "The resulting mixtures were then washed with PBS and then washed with 0.2% EDTA.\n3. Mix 1 mL of 100 μM of Avidin with 500 μL of 30.3 μM of Avidin Rhodamine (keep lights off).\n4. […] Mix well to bring the dry talc powder to evenly distributed reaction solution.\n8. Place tubes on the rotator and incubate overnight at 4° C.\n5. Continue to wash all “b” labeled tubes with 0.2% EDTA. Wash 3× in 0.5 mL EDTA.\n7. View slides under fluorescent microscope."}, "[3]": {"conditions": "flow cytometry, after multiple PBS washes"}, "NCI-28H cells [4]": {"tested_on": "NCI-28H cells", "conditions": "72 hrs"}, "[5]": {"assay": "Example 9: binding of bleomycin to talc, fluorescent microscopy (DAPI filter)", "conditions": "50 mg talc, 1 or 100 μg/mL bleomycin", "experimental": "1. Reconstitute bleomycin by adding 100 μL of water to 1 mg of bleomycin. Get the concentration to 10 mg/mL and mix, keeping the drug at 4° C.\n9. Incubate overnight at 4° C., constantly mixing it.\n3. Wash tubes 3× with 1 mL of water.\n4. After last wash, complete, remove the water and resuspend the pellet in Vectashield mounting medium for fluorescence.\n6. Check slides under fluorescent microscope under DAPI filter."}, "NCI-28H cells [6]": {"tested_on": "NCI-28H cells", "assay": "Example 21: cytotoxicity (MTS) assay, NCI-28H cells treated with doxorubicin, cisplatin, paclitaxel, talc alone, talc bound to each drug", "assay_type": "cell-based", "conditions": "for AVERAGE reading: cells + DOX: NCI-28H, 72 hrs; for Average reading: cells + cisplatin: absorbance 490 nm; for Average reading: cells + cisplatin / % survival from untreated cells (cells + cisplatin): NCI-28H cells"}, "[7]": {"assay": "Example 25: non-specific binding of Biotin-Rhodamine to talc after washing with buffers of different pH, fluorescent assay 496/520 nm", "experimental": "Plan: incubate talc with Biotin Rhodamine. Make washings using different pH buffers: PBS, TBS (pH 8.0), Citrate buffer (pH 4.8). Run fluorescent assay. 1. […] Label tubes as #1, #2, #3, #4. 2. Add to each tube 500 μL 1×PBS. 3. […] 4. Mix well, incubate all tubes for 1 hr at 4° C., rotator. Protect from light. 5. […] (Centrifuge speed −3200 rpm for 3 min) 7. Add to all tubes 200 μL PBS, mix well. 8. […] 9. Run fluorescent assay using settings excitation/emission as 496 nm/520 nm."}, "[8]": {"assay": "Example 1: binding of Anti-Avidin FITC and Biotin Rhodamine to talc, fluorescence microscopy", "conditions": "30 mg talc; FITC and Rhodamine filters", "excerpt": "This combinant nanoparticle was observed under microscopy for efficiency and efficacy. 1. […] 4. […] 5. […] 3. […] 4. […] 7. […] PBS+0.05% Tween20). 9. Analyze under microscope using FITC filter and Rhodamine filter."}}, "note": "Several values for one entry are separate records, joined by “and”; a condition that tells them apart may be missing. Equal values may be shown once. Where a name gives a salt, the structure may show the parent alone. Read-outs that look alike come from different tables or passages of the source."}
{"molecule": "N.N.O=C([O-])C1(C(=O)[O-])CCC1.[Pt+2]", "note": "[carboplatin]", "values": [{"measurement": "% survival from untreated cells: cells + drug, carboplatin", "setting": "NCI-28H cells [1]; carboplatin 0.006 μM", "value": "90.84% and 94.28%"}, {"measurement": "Average reading: cells + drug, carboplatin", "setting": "NCI-28H cells [1]; carboplatin 0.006 μM", "value": 1.504}, {"measurement": "% survival from untreated cells: cells + drug, carboplatin", "setting": "NCI-28H cells [1]; carboplatin 0.8 μM", "value": "85.98% and 87.53%"}, {"measurement": "Average reading: cells + drug, carboplatin", "setting": "NCI-28H cells [1]; carboplatin 0.8 μM", "value": 1.4238}, {"measurement": "% survival from untreated cells: cells + drug, carboplatin", "setting": "NCI-28H cells [1]; carboplatin 4 μM", "value": "96.93% and 93.62%"}, {"measurement": "Average reading: cells + drug, carboplatin", "setting": "NCI-28H cells [1]; carboplatin 4 μM", "value": 1.605}, {"measurement": "% survival from untreated cells: cells + drug, carboplatin", "setting": "NCI-28H cells [1]; carboplatin 20 μM", "value": "104.81% and 99.20%"}, {"measurement": "Average reading: cells + drug, carboplatin", "setting": "NCI-28H cells [1]; carboplatin 20 μM", "value": 1.7355}, {"measurement": "% survival from untreated cells: cells + drug, carboplatin", "setting": "NCI-28H cells [1]; carboplatin 100 μM", "value": "83.82% and 79.53%"}, {"measurement": "Average reading: cells + drug, carboplatin", "setting": "NCI-28H cells [1]; carboplatin 100 μM", "value": 1.388}, {"measurement": "% survival from untreated cells: cells + drug, carboplatin", "setting": "NCI-28H cells [1]; carboplatin 500 μM", "value": "37.38% and 35.14%"}, {"measurement": "Average reading: cells + drug, carboplatin", "setting": "NCI-28H cells [1]; carboplatin 500 μM", "value": 0.6189}]}
{"molecule": "Avidin-Rhodamine: Rhodamine Conjugated Avidin from Rockland [reference compound]", "values": [{"measurement": "binding to talc after washing", "setting": "[2]", "value": "remained bound to talc despite multiple washes"}]}
{"molecule": "Nc1ccn([C@@H]2O[C@H](CO)[C@@H](O)C2(F)F)c(=O)n1", "note": "[gemcitabine, Gemcitabine, reference compound]", "values": [{"measurement": "cytotoxicity to NCI-28H cells, conclusion", "setting": "NCI-28H cells [1]", "value": "clear cytotoxic effect"}, {"measurement": "Average absorbance reading: cells + drug, gemcitabine", "setting": "NCI-28H cells [1]; Gemcitabine 0.0026 uM", "value": 2.034}, {"measurement": "% survival cells: cells + drug only", "setting": "NCI-28H cells [1]; Gemcitabine 0.0026 uM", "value": 114.61, "unit": "%"}, {"measurement": "Average absorbance reading: cells + drug, gemcitabine", "setting": "NCI-28H cells [1]; Gemcitabine 0.013 uM", "value": 1.914}, {"measurement": "% survival cells: cells + drug only", "setting": "NCI-28H cells [1]; Gemcitabine 0.013 uM", "value": 107.85, "unit": "%"}, {"measurement": "Average absorbance reading: cells + drug, gemcitabine", "setting": "NCI-28H cells [1]; Gemcitabine 0.064 uM", "value": 1.43}, {"measurement": "% survival cells: cells + drug only", "setting": "NCI-28H cells [1]; Gemcitabine 0.064 uM", "value": 80.60, "unit": "%"}, {"measurement": "Average absorbance reading: cells + drug, gemcitabine", "setting": "NCI-28H cells [1]; Gemcitabine 8 uM", "value": 1.004}, {"measurement": "% survival cells: cells + drug only", "setting": "NCI-28H cells [1]; Gemcitabine 8 uM", "value": 56.58, "unit": "%"}, {"measurement": "Average absorbance reading: cells + drug, gemcitabine", "setting": "NCI-28H cells [1]; Gemcitabine 40 uM", "value": 1.0663}, {"measurement": "% survival cells: cells + drug only", "setting": "NCI-28H cells [1]; Gemcitabine 40 uM", "value": 60.09, "unit": "%"}, {"measurement": "Average absorbance reading: cells + drug, gemcitabine", "setting": "NCI-28H cells [1]; Gemcitabine 200 uM", "value": 0.9352}, {"measurement": "% survival cells: cells + drug only", "setting": "NCI-28H cells [1]; Gemcitabine 200 uM", "value": 52.70, "unit": "%"}]}
{"molecule": "Bleomycin sulfate", "values": [{"measurement": "binding of bleomycin to talc", "setting": "[3]", "value": "binds to talc and remains on surface of talc even following multiple PBS washes"}, {"measurement": "% survival NCI-28H cells after treatment with BLEOMYCIN", "setting": "NCI-28H cells [4]; Bleomycin 0.004 ug/ml", "value": 92.41, "unit": "%"}, {"measurement": "% survival NCI-28H cells after treatment with BLEOMYCIN", "setting": "NCI-28H cells [4]; Bleomycin 0.015 ug/ml", "value": 88.25, "unit": "%"}, {"measurement": "% survival NCI-28H cells after treatment with BLEOMYCIN", "setting": "NCI-28H cells [4]; Bleomycin 0.06 ug/ml", "value": 93.38, "unit": "%"}, {"measurement": "% survival NCI-28H cells after treatment with BLEOMYCIN", "setting": "NCI-28H cells [4]; Bleomycin 0.24 ug/ml", "value": 91.86, "unit": "%"}, {"measurement": "% survival NCI-28H cells after treatment with BLEOMYCIN", "setting": "NCI-28H cells [4]; Bleomycin 0.97 ug/ml", "value": 86.19, "unit": "%"}, {"measurement": "% survival NCI-28H cells after treatment with BLEOMYCIN", "setting": "NCI-28H cells [4]; Bleomycin 3.9 ug/ml", "value": 71.05, "unit": "%"}, {"measurement": "% survival NCI-28H cells after treatment with BLEOMYCIN", "setting": "NCI-28H cells [4]; Bleomycin 15.6 ug/ml", "value": 74.60, "unit": "%"}, {"measurement": "% survival NCI-28H cells after treatment with BLEOMYCIN", "setting": "NCI-28H cells [4]; Bleomycin 62.5 ug/ml", "value": 68.76, "unit": "%"}, {"measurement": "% survival NCI-28H cells after treatment with BLEOMYCIN", "setting": "NCI-28H cells [4]; Bleomycin 250 ug/ml", "value": 47.13, "unit": "%"}, {"measurement": "% survival NCI-28H cells after treatment with BLEOMYCIN", "setting": "NCI-28H cells [4]; Bleomycin 1000 ug/ml", "value": 24.92, "unit": "%"}, {"measurement": "fluorescent imaging of talc incubated with bleomycin", "setting": "[5]", "value": "no difference in fluorescent imaging between negative control and talc incubated with bleomycin"}]}
{"molecule": "COc1cccc2c1C(=O)c1c(O)c3c(c(O)c1C2=O)C[C@@](O)(C(=O)CO)C[C@@H]3O[C@H]1C[C@H](N)[C@H](O)[C@H](C)O1", "note": "[DOX, Doxorubicin Hydrochloride]", "values": [{"measurement": "AVERAGE reading: cells + DOX", "setting": "NCI-28H cells [6]; DOX 0.2 μM", "value": 0.89}, {"measurement": "AVERAGE reading: cells + DOX", "setting": "NCI-28H cells [6]; DOX 1 μM", "value": 0.67}, {"measurement": "AVERAGE reading: cells + DOX", "setting": "NCI-28H cells [6]; DOX 5 μM", "value": 0.63}]}
{"molecule": "Biotin Rhodamine 110", "values": [{"measurement": "effect of pH of washing buffers on binding to talc", "setting": "[7]; pH 4.8-8.0", "value": "pH does not affect the binding"}, {"measurement": "Average fluorescent signal (Rhodamine 110)", "setting": "[7]; talc/Biotin washed with Citrate buffer, pH 4.8", "value": 14027.61}, {"measurement": "Average fluorescent signal (Rhodamine 110)", "setting": "[7]; talc/Biotin washed with PBS", "value": 13760.41}, {"measurement": "Average fluorescent signal (Rhodamine 110)", "setting": "[7]; talc/Biotin washed with TBS, pH 8.0", "value": 12868.68}, {"measurement": "binding to talc, microscopy", "setting": "[8]", "value": "binding to talc"}]}
{"molecule": "N.N.[Cl][Pt][Cl]", "note": "[cisplatin, Cisplatin]", "values": [{"measurement": "Average reading: cells + cisplatin", "setting": "NCI-28H cells [6]; Cisplatin 0.0013 μM", "value": 1.37}, {"measurement": "Average reading: cells + cisplatin", "setting": "NCI-28H cells [6]; Cisplatin 0.0064 μM", "value": 1.19}, {"measurement": "Average reading: cells + cisplatin", "setting": "NCI-28H cells [6]; Cisplatin 0.8 μM", "value": 1.23}, {"measurement": "Average reading: cells + cisplatin", "setting": "NCI-28H cells [6]; Cisplatin 4 μM", "value": 1.18}, {"measurement": "Average reading: cells + cisplatin", "setting": "NCI-28H cells [6]; Cisplatin 20 μM", "value": 0.48}, {"measurement": "Average reading: cells + cisplatin", "setting": "NCI-28H cells [6]; Cisplatin 100 μM", "value": 0.59}, {"measurement": "% survival from untreated cells (cells + cisplatin)", "setting": "NCI-28H cells [6]; cisplatin 0.0013 (μM per Table 63)", "value": 91.07, "unit": "%"}, {"measurement": "% survival from untreated cells (cells + cisplatin)", "setting": "NCI-28H cells [6]; cisplatin 0.0064 (μM per Table 63)", "value": 79.21, "unit": "%"}, {"measurement": "% survival from untreated cells (cells + cisplatin)", "setting": "NCI-28H cells [6]; cisplatin 0.032 (μM per Table 63)", "value": 76.66, "unit": "%"}, {"measurement": "% survival from untreated cells (cells + cisplatin)", "setting": "NCI-28H cells [6]; cisplatin 0.16 (μM per Table 63)", "value": 79.74, "unit": "%"}, {"measurement": "% survival from untreated cells (cells + cisplatin)", "setting": "NCI-28H cells [6]; cisplatin 0.8 (μM per Table 63)", "value": 82.09, "unit": "%"}, {"measurement": "% survival from untreated cells (cells + cisplatin)", "setting": "NCI-28H cells [6]; cisplatin 4 (μM per Table 63)", "value": 78.41, "unit": "%"}, {"measurement": "% survival from untreated cells (cells + cisplatin)", "setting": "NCI-28H cells [6]; cisplatin 20 (μM per Table 63)", "value": 31.99, "unit": "%"}, {"measurement": "% survival from untreated cells (cells + cisplatin)", "setting": "NCI-28H cells [6]; cisplatin 100 (μM per Table 63)", "value": 39.35, "unit": "%"}]}
